Measured values: patent US8329681B2, “Methods and compositions for the efficient delivery of therapeutic agents to cells and animals” (University of Massachusetts, priority 2005, dated 2012)

Tests used:
FL83B cells [1] = test: Cell Titer-Blue cell viability assay, cytotoxicity of liposomes; assay type: cell-based, rat; details: 50 μg/ml, 24 h incubation
Description: The Cell Titer-Blue Cell Viability Assay Kit (Promega, Madison, Wis.) was applied to detect and measure cytotoxicity in FL83B cells according to the manufacturer's instructions. Briefly, […] cells were plated on 96-well plate in F-12K medium (ATCC, Manassas, Va.) with 10% fetal bovine serum at 37° C. in 5% CO2. At 24 h., liposomes were added to each well at various concentrations and incubated for 24 h at 37° C. in 5% CO2. Afterwards, the Cell Titer-Blue Reagent was added to each well at 20 μl/well and incubated for 4 h at 37° C. in 5% CO2. The fluorescent signal was recorded by a fluorescent reader (560/590 nm).
Briefly, in a first experiment, the ability of eukaryotic cells to survive exposure to various lipids at doses of 20 and 50 μg/ml was examined. Fl83B cells were plated on 96-well plate for 24 hours. Typically liposomes were added to well and incubated at 37° C. for 24 hours. Thereafter, Cell Titer-Blue Reagent (resazurin) was added and incubated for 4 hours. Resazurin was used as indicator to measure the metabolic capacity of cells. Viable cells retain the ability to reduce resazurin into resorufin, which is highly fluorescent. […] The fluorescence in each well was measured by fluorescent reader.
All cytotoxicity measurements were performed after 24 h of incubation with new synthesizes liposome without medium changes. […]

A549 cells = test: Transfection of pSV-β-gal plasmid, β-galactosidase reporter activity; assay type: cell-based, human
Description: (§1) Cationic lipids and the co-lipids in chloroform were dried under a stream of N2 gas and vacuum-desiccated for a minimum of 6 h to remove residual organic solvent. The dried lipid film was hydrated in sterile deionized water at cationic lipid concentration of 1 mM for a minimum of 12 h. Liposomes were vortexed to remove any adhering lipid film and probe sonicated until a clear translucent solution is formed. The pDNA solution was added to the liposomes, mixed properly by pipeting and shaken on a rotary shaker (15-30 mins.) before use.
(§2) Cells were seeded at a density of 20,000 (for HeLa cells), 16,000 (for A-549 cells), 8,000 (for FL83B cells) per well in a 96-well plate 18-24 h before transfection. An amount of 0.30 μg of pDNA was complexed with varying amounts of lipids (to give +/− ratios of 0.3:1, 1:1, 3:1 and 9:1) in plain OPTIMEM (total volume made up to 100 μl) and then shaken on a rotary shaker at room temperature for 20-30 minutes. The complexes were then added to the cells. After 5 h of incubation, 200 μl of complete medium containing 10% FBS in DMEM for HeLa and 10% FBS in F-12K for FL83B and A549 was added to the cells. The medium was changed after 24 h and the reporter gene activity was estimated 48 h after transfection. Cells were washed with PBS (100 μl) and lysed in […] lysis buffer (5× reporter lysis buffer diluted to 1×, working concentration). The β-galactosidase activity per well was estimated by adding 50 μl of 2× substrate solution (1.33 mg/ml of ONPG, 0.2 M sodium phosphate, pH 7.15 and 2 mM magnesium chloride) to the lysate in a 96-well plate. Absorbance of the product ortho-nitrophenol was measured at 420 nm. The absorbance values reported are the average values from two replicate experiments performed in the same plate on the same day. Each transfection experiment was performed three times on three different days to control for variations in transfection efficiency.
(§3) Briefly, the efficacy of various lipid formulations were tested in three cell lines A-549, FL83B and HeLa cells and the transfection efficiencies of the cationic liposomal formulations were compared with a commercially available transfection reagent (e.g., Lipofectamine 2000).

HeLa cells [2] = test: as above; assay type: cell-based, human
Description: as §1, §2, §3

FL83B cells [3] = test: as above; assay type: cell-based, rat
Description: as §1, §2, §3

CDK9 expression = test: In vivo delivery of CDK9 siRNA with liposome by tail vein injection, CDK9 expression in spleen; set-up: species or system BALB/c mice; details: Cy3-labeled CDk9 siRNA (25 μg) and liposome (125 μg), repeated 4 and 8 h later, within the initial 24 h after treatment
Description: Total RNA was extracted from tissues or cultured cells using Trizol (Invitrogen, Carlsbad, Calif.), and real-time RT-PCR for CDK9 and GAPDH mRNA quantification was carried out using 200 ng of total RNA and the QuantiTect SYBR Green RT-PCR Kit (Qiagen, Valencia, Calif.) according to the manufacturer's instructions. The ratio of CDK9 and GAPDH mRNA was calculated and expressed as a group average relative to the control group. The specific probe for detection of CDK9 mRNA levels was designed to the following regions of the CDK9 mRNA ORF, the forward primer 5′ TCGGACCAA AGCCTCACCGTATAA 3′, the reverse primer 5′ […] TTG 3′
Male BALB/c mice, 6-8 weeks of age and weighting 20-22 g, were purchased form the Jackson Laboratory (Bar Harbor, Me.). Synthetic siRNA were delivered in vivo using following method. For each mice 25 μg of siRNA in 100 μl of HEPES Buffered Saline (20 mM HEPES, 150 mM NaCl, pH 7.4) was transferred into a sterile tube. In a separate sterile tube 125 μg of liposome was mixed with 200 μl HEPES Buffered Saline. The siRNA solution was transferred to the tube containing liposome solution and then incubated at room temperature for 20 minutes. 200 μl of the complexes was injected via the tail vein, using a 1-ml syringe and 27-gauge needle. The injection was repeated 4 and 8 h later. Control mice were injected with an equal volume of liposome. At 24 h after the last injection, the mice were sacrificed and tissues were harvested for further analysis. CDK9 expression level was normalized with GAPDH and then compared to those obtained from control animals and shown as percent expression. The data represent the mean value +/− SD of three to five mice in each group.
Briefly, the ability of the new synthesized liposome to deliver siRNA in mice was investigated. BALB/c mice were administrated with complexes of Cy3-labeled CDk9 siRNA (25 μg) and liposome (125 μg) via normal pressure tail vein injection. The injection was repeated 4 and 8 h later. Control mice were administrated with an equal amount of liposome. […]

FL83B cells [4] = test: Cell Titer 96 AQueous One Solution (MTS) cytotoxicity assay; assay type: cell-based, rat; details: liposomal formulation alone or in combination with DOPE and DOPC as co-lipid
Description: (§4) Alternatively, the cytotoxicity of the lipids was measured using the Cell Titer 96® AQueous One Solution Cell Proliferation Assay. The Cell Titer 96® AQueous One Solution Reagent contains a tetrazolium compound [3-(4,5-dimethylthiazol-2-yl)-5-(3-carboxymethoxyphenyl)-2(4-sulfophenyl)-2H-tetrazolium, inner salt; MTS^17] and an electron coupling reagent (phenazine ethosulfate; PES). The cytotoxicity assay was performed in 96 well plates by maintaining the ratio of number of cells to amount of cationic lipid constant as in transfection experiments. MTS was added 24 hours after transfection. Cell Titer 96® AQueous One Solution Reagent (20 ul) was pipetted into each well of the 96-well assay plate containing the samples in 100 μl of culture medium. In case of HeLa cells the plates were incubated for 2 hours, whereas for FL83B cells, plates were incubated for 4 hours at 37° C. in a humidified, 5% CO2 atmosphere. Absorbance was then recorded at 490 nm.
(§5) In a second experiment, FL83B and HeLa cells were plated on 96 well plate 18 hours prior to transfection. Then, liposome was added to each well and incubated for 24 hours. Thereafter, Cell Titer 96® AQueous One Solution Reagent was added and incubated for 4 hours. The MTS tetrazolium compound (Owen's reagent) is bioreduced by viable cells into a colored formazan product that is soluble in tissue culture […]. The absorbance of the formazan was measured at 490 nm with a 96 well plate reader.

HeLa cells [5] = test: as above; assay type: cell-based, human; details: liposomal formulation alone or in combination with DOPE and DOPC as co-lipid
Description: as §4, §5

[6] = test system: A-549, FL83B and HeLa cells; test: Transfection of pSV-β-gal plasmid, overall statement without cell line; assay type: cell-based; details: alone without any co-lipids
Description: as §2, with “efficiency. […]” for “efficiency.”

[7] = in combination with DOPE and DOPC
[8] = alone and in combination with DOPE and DOPC, lipid:DNA charge ratio 9.0:1 to 0.3:1
[9] = alone or in combination with DOPE and DOPC, lipid:DNA charge ratio 9.0:1 to 0.3:1.0
[10] = lipid:DNA charge ratio 9.0:1 to 0.3:1.0

Question: Which results are given for `CCCCCCCCCCCCCC(=O)O[C@H](COC(=O)CCC(=O)O[C@H]1CC[C@@]2(C)C(=CC[C@H]3[C@@H]4CC[C@H]([C@H](C)CCCC(C)C)[C@@]4(C)CC[C@@H]32)C1)C[N+](C)(CCO)CCO.[I-]` [Lipid 9]?
Answer: cell death (FL83B cells [1]): 12%; transfection efficiency compared with Lipofectamine 2000 (A549 cells; [7]): comparable; transfection efficiency, fold less than Lipofectamine 2000 (HeLa cells [2]; [7]): more than 1 fold; transfection efficiency, fold less than Lipofectamine 2000 (FL83B cells [3]; [7]): more than 1 fold; CDK9 expression level in the spleen decreased by (CDK9 expression): 30%

Question: Which results are given for `CC(C)CCC[C@@H](C)[C@H]1CC[C@H]2[C@@H]3CC=C4CC(OC(=O)CCC(=O)OCC(O)C[N+](C)(C)C)CC[C@]4(C)[C@H]3CC[C@]12C` (some centres unmarked) [Lipid 12, N,N,N-Trimethyl-N-[2-hydroxy, 3-succinyloxy(4-cholesteryloxy)-propyl]ammonium iodide]?
Answer: transfection efficiency compared with Lipofectamine 2000 (A549 cells; lipid:DNA charge ratio 0.3:1): comparable; transfection efficiency compared with Lipofectamine 2000 (HeLa cells [2]; lipid:DNA charge ratio 0.3:1): comparable; transfection efficiency compared with Lipofectamine 2000 (FL83B cells [3]; lipid:DNA charge ratio 0.3:1): comparable

Question: Which results are given for `CCCCCCCCCCCCCC(=O)OC(COC(=O)CCC(=O)O[C@H]1CC[C@@]2(C)C(=CC[C@H]3[C@@H]4CC[C@H]([C@H](C)CCCC(C)C)[C@@]4(C)CC[C@@H]32)C1)C[N+](C)(C)C.[I-]` (some centres unmarked) [Lipid 7, N,N,N-Trimethyl-N-[2-(tetradecanoyloxy),3-succinyloxy(4-cholesteryloxy)-propyl]ammonium iodide]?
Answer: cytotoxicity as compared to a control (FL83B cells [4]): non-toxic; cytotoxicity as compared to a control (HeLa cells [5]): non-toxic; transfection efficiency compared with Lipofectamine 2000 (A549 cells; [8]): comparable; transfection efficiency compared with Lipofectamine 2000 (HeLa cells [2]; [8]): more than one fold less; transfection efficiency compared with Lipofectamine 2000 (FL83B cells [3]; [8]): comparable; CDK9 expression level in the spleen decreased by (CDK9 expression): 40%; transfection efficiency of lipid alone compared with lipid in combination with DOPE and DOPC [6]: about as efficient

Question: `CC[N+](C)(C)CCNC(=O)OC1CC[C@@]2(C)C(=CC[C@H]3[C@@H]4CC[C@H]([C@H](C)CCCC(C)C)[C@@]4(C)CC[C@@H]32)C1` (some centres unmarked) [Lipid 14] was tested. Which “transfection efficiency, fold less than Lipofectamine 2000” value (A549 cells; alone or in combination with DOPE and DOPC, lipid:DNA charge ratios 1:1 and 0.3:1) did it give?
Answer: Its value is “about 1.5 fold”.

Question: What about the “transfection efficiency compared with Lipofectamine 2000” value (HeLa cells [2]; in combination with DOPC, lipid:DNA charge ratio 0.3:1) of the same molecule?
Answer: The value was “almost comparable”.

Question: And the “transfection efficiency, fold less than Lipofectamine 2000” value (HeLa cells [2]; in combination with DOPE)?
Answer: Its value is 2.5 fold.

Question: And the “transfection efficiency, fold less than Lipofectamine 2000” value (HeLa cells [2]; lipid alone, charge ratio 9:1 to 3:1)?
Answer: Its value is “more than 1.5 fold”.

Question: What about the “transfection efficiency compared with Lipofectamine 2000” value (FL83B cells [3]; alone, charge ratio 3:1) of the same molecule?
Answer: The value was “comparable”.

Question: What about the “transfection efficiency compared with Lipofectamine 2000” value (FL83B cells [3]; in combination with DOPC) of the same molecule?
Answer: Its value is “less efficient”.

Question: And the “transfection efficiency compared with Lipofectamine 2000” value (FL83B cells [3]; in combination with DOPE, charge ratio 9:1)?
Answer: The value was “comparable”.

Question: `CC(C)CCC[C@@H](C)[C@H]1CC[C@H]2[C@@H]3CC=C4C[C@@H](OC(=O)NCC[N+](C)(C)CCCCCCCCCCCO)CC[C@]4(C)[C@H]3CC[C@]12C.[Br-]` [Lipid 16] was tested. Which “cytotoxicity as compared to a control” value (FL83B cells [4]) did it give?
Answer: The value was “non-toxic”.

Question: What about the “cytotoxicity as compared to a control” value (HeLa cells [5]) of the same molecule?
Answer: The value was “non-toxic”.

Question: What about the “transfection efficiency compared with Lipofectamine 2000” value (A549 cells; [9]) of the same molecule?
Answer: Its value is “about a little more than one fold”.

Question: What about the “transfection efficiency of lipid alone compared with combination with co-lipids DOPE and DOPC” value (A549 cells; [10]) of the same molecule?
Answer: The value was “almost the same”.

Question: What about the “transfection efficiency, fold less active than Lipofectamine 2000” value (HeLa cells [2]; [9]) of the same molecule?
Answer: The value was “about 1.5 fold”.

Question: What about the “transfection efficiency of lipid alone compared with combination with co-lipids DOPE and DOPC” value (HeLa cells [2]; [10]) of the same molecule?
Answer: The value was “almost the same”.

Question: And the “transfection efficiency compared with Lipofectamine 2000” value (FL83B cells [3]; alone or in combination with co-lipids)?
Answer: Its value is “about two fold less”.
